Holding throughout (format): in vivo
Assay [1] relates to NR2 subunits of NMDA receptors (NMDA R2 A/B). Put plainly: Immunohistochemistry of NR2 subunits of NMDA receptors in rat brain after DHEAS treatment. To be noted: after 5, 20 and 30 days of treatment, 30 mg/kg i.p. twice daily. The protocol: (§1) Male Wistar rats weighing 200-220 g (IFFA CREDO, Paris) were housed at 21° C. with a standard 12 h light/12 h dark cycle and with food and water being freely available. The animals received intraperitoneal (i.p.) injections of either the vehicle dimethyl sulfoxide (DMSO; 0.2 ml/250 g body weight(b.w.) or dehydroepiandrosterone sulfate (DHEAS; 30 mg/kg b.w. dissolved in DMSO (0.2 ml/250 g b.w)) twice daily, at 8 a.m. and 6 p.m., for a period of either 5, 20 or 30 days. The last injection was given at 8 a.m. of the 5th, 20th or 30th day. All the animals were killed 2 hours after the last injection. Six groups of animals (ten animals per group) were used. Three control groups received DMSO alone for a period of 5, 20 or 30 days respectively, and, in a similar manner, three groups received DHEAS treatment for a period of 5, 20 or 30 days respectively.
(§2) The rats were killed by decapitation and the brains were rapidly removed from the skull, quickly frozen in liquid isopentane at −40° C., and kept at −80° C. until sectioned. The frozen brains were cut into 20 um thick sections in a cryostat (Frigocut 2800, Reichert Jung). […]
(§3) The increase can be quantified by the SCION program developed at the National Institutes of Health (USA). […]

A further assay deals with NMDA receptors. Put plainly: Effect of DHEAS treatment on [3H]-MK801-labeled NMDA receptor sites in rat brain (quantitative autoradiography). The following applies: male Wistar rats, 30 mg/kg i.p. twice daily for 5 days. The source says:
1.1 Labeling the NMDA Receptors with the Ligand [^3H]-MK801
The NMDA receptors in the rat brain were labeled by means of the quantitative autoradiography technique, thereby making it possible to visualize and quantify the number of receptors in different regions of the brain.
The radioactive ligand which makes it possible to specifically recognize the sites of the NMDA receptors is tritium-labeled dizocilpine (MK801), i.e. [^3H]-MK801 (Kemp et al. TINS (1987) 294-298).
Male rats (Wistar) weighing between 200 and 220 g were decapitated. Their brains were rapidly removed and placed in liquid isopentane at a temperature of −40° C. The brains were then stored at −80° C. until used.
Brain sections having a thickness of […] were obtained using a Frigocut 2800® cryostat, which is marketed by Reichert Jung.
The brain sections were preincubated in a 50 mM Tris-acetate, pH 7.4, buffer at 4° C. for 30 minutes. They were then dried rapidly at room temperature.
The sections were then incubated with the radioligand [^3H]-MK801, sold by New England Nuclear (Boston, Mass., USA) and having a specific activity of 24 Ci/mmol, at a concentration of 5 nM in the abovementioned buffer at 4° C. for a period of 4 hours.
Control sections were incubated with MK801, which was present at a concentration of 10^−5 M and which was not labeled with tritium, in order to determine non-specific binding.
All the sections were then rinsed for 5 seconds and then for 90 minutes in the same cold buffer.
The sections were dried at room temperature and then exposed on tritium-hyperfilm films (Amersham) at 4° C. in the dark for 4 weeks in autoradiography cassettes.
The films were developed for 2 minutes in a Kodak D19 developer and then fixed in Kodak Rapid fixer and finally rinsed for an hour in running water.
The autoradiographic labeling was quantified by densitometry using the RAG-200 software sold by BIOCOM (Les Ulis, France), and the binding was measured by relative optical density.
30 mg of DHEAS were administered/kg, intraperitoneally and twice daily, to non-castrated male Wistar rats for 5 days. The rats were sacrificed on the 5th day, 30 minutes after the last injection of DHEAS.
The apparent [^3H]-MK801-binding sites are measured by optical density OD for the total specific binding of [^3H]-MK801 in the cortex and different regions of the hippocampus: CA1; CA3; lateral blade of the dentate gyrus, DG1b, and the median blade of the dentate gyrus, DGmb.

In assay [2] the test system is NR1 subunit of the NMDA receptor. Put plainly: Immunohistochemistry of NR1 subunits of NMDA receptors in rat brain after DHEAS treatment. The following applies: after 5, 20 and 30 days of treatment, 30 mg/kg i.p. twice daily. The protocol:
as §1, §2, §3

As for dehydroepiandrosterone sulfate [DHEAS], the “NR2 subunits (in words)” value in assay [1] is reported as “slight increase”. Moreover, the “number of [3H]-MK801 sites, OD” value with NMDA receptors (CA1) was 54.01 ± 4.05; with NMDA receptors (CA3) it was 33.37 ± 4.94; in the assay on NMDA receptors (Cortex), 24.88 ± 2.73; with NMDA receptors (DG1b (dentate gyrus, lateral blade)), 42.15 ± 4.31; in the assay with NMDA receptors (DGmb (dentate gyrus, medial blade)) it was 43.13 ± 3.53. For the same substance, in assay [2], the “number of NR1 subunits (in words)” value is recorded as “clear increase”.

The values above are taken from patent US20030225049A1, “Method of treatment for increasing the number of NMDA receptors in a mammalian brain” (UNIVERSITE PARIS VI, priority 1998, published 2003).
